Laboratory results published in patent US6932960B2, “N-substituted 3-hydroxy-4-pyridinones and pharmaceuticals containing thereof” (Bristol-Myers Squibb Pharma Company, priority 2002, dated 2005).

Assays:
[1] = Zn(II) binding constant (Log KZnL/[Zn][L]), literature values; format: physicochemical; settings: relative to N-hydroxyacetamide
[2] = Zn(II) binding affinity of the chelator; cited from earlier work

| SMILES | Log KZnL/[Zn][L] fold higher than that of N-hydroxyacetamide [1] | Log KZnL/[Zn][L] [2] |
| --- | --- | --- |
| Cc1c(O)c(=O)ccn1C [Deferiprone, 1,2-dimethyl-3-hydroxy-4-pyridinone] | about 100 fold | 7.19 |
| CC(=O)NO [N-hydroxyacetamide] | – | < 5 |
